Read-outs that look alike come from different tables or passages of the source. Square brackets hold non-standard residues; d marks the D form. Peptide text beside a SMILES is read from it.
Tests used:
dog platelets = dog platelets (Canis lupus familiaris, UniProt A0A8I3N5G5+A0A8I3PMU9); conditions: read-out: IC50 for the aggregation of dog platelets stimulated by ADP; agonist ADP; peptides added 3 min prior to the agonist; light transmittance 5 min after agonist
Protocol: Inhibition of Platelet Aggregation
Blood was collected (citrated to prevent coagulation) from, naive, adult mongrel dogs. Platelet rich plasma, PRP, was prepared by centrifugation at 150×g for 10 min at room temperature. Washed platelets were prepared by centrifuging PRP at 800×g for 10 min. The cell pellet thus obtained was washed twice in Tyrode's buffer (pH 6.5) without Ca^++ and resuspended in Tyrode's buffer (pH 7.4) containing 1.8 mM Ca^++ at […]. Peptides were added 3 min prior to the agonist in all assays of platelet aggregation. Final agonist concentrations were 0.1 unit/ml thrombin and […] (Sigma). Aggregation was monitored in a Chrono-Log Lumi-Aggregometer. Light transmittance 5 min after addition of the agonist was used to calculate percent aggregation according to the formula % aggregation=[(90-CR)[…](90-10)]×100, where CR is the chart reading, 90 is the baseline, and 10 is the PRP blank reading. IC50 's were determined by plotting [% inhibition of aggregation] vs. [concentration of peptide]. Peptides were assayed at […] and diluted sequentially by a factor of 2 to establish a suitable dose response curve.

[1] = amide bond, DMF
[2] = the molecule shown is the open-chain precursor, 20-membered ring, BOP/DIEA, resin, with chain assembly

Chain of dog platelets (A0A8I3N5G5 1-1047): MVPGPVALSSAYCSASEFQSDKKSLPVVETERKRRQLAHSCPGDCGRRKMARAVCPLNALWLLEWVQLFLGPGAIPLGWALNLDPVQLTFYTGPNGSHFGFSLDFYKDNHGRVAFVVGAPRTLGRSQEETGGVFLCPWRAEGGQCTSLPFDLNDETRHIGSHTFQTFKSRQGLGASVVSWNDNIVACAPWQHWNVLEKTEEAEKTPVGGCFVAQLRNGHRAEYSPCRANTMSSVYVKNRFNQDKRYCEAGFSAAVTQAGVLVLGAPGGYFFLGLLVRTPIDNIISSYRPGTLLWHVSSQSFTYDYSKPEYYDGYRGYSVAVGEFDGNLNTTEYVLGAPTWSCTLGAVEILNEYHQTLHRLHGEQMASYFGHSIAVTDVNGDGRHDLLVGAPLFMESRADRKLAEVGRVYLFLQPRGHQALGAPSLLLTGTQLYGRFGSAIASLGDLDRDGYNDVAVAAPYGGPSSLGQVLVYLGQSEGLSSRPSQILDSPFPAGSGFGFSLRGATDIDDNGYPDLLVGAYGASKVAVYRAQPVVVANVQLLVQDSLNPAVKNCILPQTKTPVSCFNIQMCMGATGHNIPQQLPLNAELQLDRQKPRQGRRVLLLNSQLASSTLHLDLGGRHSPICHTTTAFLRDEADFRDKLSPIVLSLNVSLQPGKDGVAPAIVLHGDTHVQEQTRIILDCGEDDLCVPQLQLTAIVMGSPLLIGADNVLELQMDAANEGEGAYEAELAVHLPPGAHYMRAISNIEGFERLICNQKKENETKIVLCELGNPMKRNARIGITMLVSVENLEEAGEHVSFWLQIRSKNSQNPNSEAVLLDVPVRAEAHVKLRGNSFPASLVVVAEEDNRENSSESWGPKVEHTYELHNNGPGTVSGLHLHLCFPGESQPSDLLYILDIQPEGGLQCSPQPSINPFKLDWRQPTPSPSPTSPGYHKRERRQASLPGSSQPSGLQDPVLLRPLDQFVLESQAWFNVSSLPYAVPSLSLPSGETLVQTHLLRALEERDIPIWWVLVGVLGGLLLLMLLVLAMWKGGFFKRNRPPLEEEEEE
Chain of dog platelets (A0A8I3PMU9 1-919): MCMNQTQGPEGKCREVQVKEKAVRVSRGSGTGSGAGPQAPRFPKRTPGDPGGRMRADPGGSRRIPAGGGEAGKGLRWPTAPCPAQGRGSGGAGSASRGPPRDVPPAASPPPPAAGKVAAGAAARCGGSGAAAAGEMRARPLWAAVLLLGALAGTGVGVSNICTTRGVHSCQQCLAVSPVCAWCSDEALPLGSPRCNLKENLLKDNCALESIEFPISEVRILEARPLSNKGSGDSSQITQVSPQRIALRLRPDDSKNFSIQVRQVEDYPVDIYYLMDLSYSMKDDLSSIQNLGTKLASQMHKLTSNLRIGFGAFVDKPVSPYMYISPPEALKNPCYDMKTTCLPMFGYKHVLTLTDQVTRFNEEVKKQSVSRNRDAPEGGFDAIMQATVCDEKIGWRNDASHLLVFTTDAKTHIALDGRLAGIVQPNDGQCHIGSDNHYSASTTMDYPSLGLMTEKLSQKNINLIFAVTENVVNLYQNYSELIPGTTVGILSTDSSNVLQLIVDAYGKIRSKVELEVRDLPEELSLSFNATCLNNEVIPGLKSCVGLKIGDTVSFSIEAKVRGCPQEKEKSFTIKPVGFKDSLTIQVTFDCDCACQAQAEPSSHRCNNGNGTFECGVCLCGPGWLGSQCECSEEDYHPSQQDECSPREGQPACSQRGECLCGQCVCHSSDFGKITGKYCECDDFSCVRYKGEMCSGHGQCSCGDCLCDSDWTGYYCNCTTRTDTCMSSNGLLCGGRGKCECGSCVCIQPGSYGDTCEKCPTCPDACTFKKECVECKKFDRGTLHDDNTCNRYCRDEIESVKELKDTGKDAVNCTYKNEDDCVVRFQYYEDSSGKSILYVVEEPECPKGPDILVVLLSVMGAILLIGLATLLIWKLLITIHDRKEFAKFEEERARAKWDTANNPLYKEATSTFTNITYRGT

Work on `N=C(N)NCCC[C@@H]1NC(=O)CNC(=O)[C@@H]2CCCN2C(=O)[C@H](CO)NC(=O)[C@H](CC(=O)O)NC(=O)CNC1=O` [Example 25, cyclo-(1,6)-Gly-Arg-Gly-Asp-Ser-Pro] yielded an IC50 (dog platelets) of over 200 µM.
Molecule `N=C(N)NCCC[C@@H]1NC(=O)[C@@H]2CCCN2C(=O)[C@@H](Cc2ccccc2)NC(=O)[C@H](CC(=O)O)NC(=O)CNC(=O)[C@H](CCCNC(=N)N)NC(=O)[C@@H]2CCCN2C(=O)[C@@H](Cc2ccccc2)NC(=O)[C@H](CC(=O)O)NC(=O)CNC1=O` [Example 22, cyclo-(1,10)-Pro-Arg-Gly-Asp-D-Phe-Pro-Arg-Gly-Asp-D-Phe] (cyclo(RGD[dF]PRGD[dF]P)) has an IC50 (dog platelets) of over 200 µM.
With `C[C@H]1NC(=O)[C@H](CO)NC(=O)[C@H](CC(=O)O)NC(=O)CNC(=O)[C@H](CCCNC(=N)N)NC1=O` [Example 28, cyclo-(1,5)-D-Ala-Arg-Gly-Asp-Ser] (cyclo(RGDS[dA])) the IC50 (dog platelets) was over 200 µM.
For `COc1cc(C)c(S(=O)(=O)NC(=N)NCCC[C@@H]2NC(=O)CNC(=O)[C@@H]3CCCN3C(=O)[C@H](COCc3ccccc3)NC(=O)[C@H](CC(=O)OC(C)(C)C)NC(=O)CNC2=O)c(C)c1C` [cyclo-(1,6)-Gly-Arg-Gly-Asp-Ser-Pro], the ring closure, crude yield ([1]; from H-Asp(OtBu)-Ser(Bzl)-Pro-Gly-Arg(Mtr)-Gly-OH, 18-membered ring, PPA/NMM, 0.4 mM) was 88%.
Work on `COc1cc(C)c(S(=O)(=O)NC(=N)NCCC[C@@H]2NC(=O)[C@@H]3CCCN3C(=O)[C@@H](Cc3ccccc3)NC(=O)[C@H](CC(=O)OC(C)(C)C)NC(=O)CNC(=O)[C@H](CCCNC(=N)NS(=O)(=O)c3c(C)cc(OC)c(C)c3C)NC(=O)[C@@H]3CCCN3C(=O)[C@@H](Cc3ccccc3)NC(=O)[C@H](CC(=O)OC(C)(C)C)NC(=O)CNC2=O)c(C)c1C` yielded a ring closure, crude yield ([1]; from H-Asp(OtBu)-dPhe-Pro-Arg(Mtr)-Gly-Asp(OtBu)-dPhe-Pro-Arg(Mtr)-Gly-OH, 30-membered ring, PPA/NMM, 0.4 mM) of 100%.
Molecule `Cc1ccc(S(=O)(=O)NC(=N)NCCC[C@@H]2NC(=O)[C@@H](C)NC(=O)[C@H](COCc3ccccc3)NC(=O)[C@H](CC(=O)OCc3ccccc3)NC(=O)CNC2=O)cc1` [cyclo-(1,5)-D-Ala-Arg(Tos)-Gly-Asp(Bzl)-Ser(Bzl)] has a ring closure, crude yield ([1]; from H-Asp(Bzl)-Ser(Bzl)-dAla-Arg(Tos)-Gly-OH, 15-membered ring, PPA/NMM, 0.4 mM) of 67%.
`COc1cc(C)c(S(=O)(=O)NC(=N)NCCC[C@@H]2NC(=O)[C@@H]3CCCN3C(=O)CNC(=O)[C@H]3CCCN3C(=O)[C@H](CC(=O)OC(C)(C)C)NC(=O)CNC2=O)c(C)c1C` [cyclo-(1,6)-Gly-Pro-Arg-Gly-Asp-D-Pro] showed a ring closure, crude yield ([1]; from H-Asp(OtBu)-dPro-Gly-Pro-Arg(Mtr)-Gly-OH, 18-membered ring, PPA/NMM, 0.4 mM) of 42%.
`COc1cc(C)c(S(=O)(=O)NC(=N)NCCC[C@@H]2NC(=O)[C@@H]3CCCN3C(=O)[C@@H](Cc3ccccc3)NC(=O)CNC(=O)[C@H](CC(=O)OC(C)(C)C)NC(=O)CNC2=O)c(C)c1C` [cyclo(1,6)-Asp(O-t-Bu)-Gly-D-Phe-Arg(Tos)-Gly] showed a ring closure, crude yield ([1]; from H-Asp(OtBu)-Gly-dPhe-Pro-Arg(Mtr)-Gly-OH, 18-membered ring, PPA/NMM, 0.5 mM) of 84%.
With `COc1cc(C)c(S(=O)(=O)NC(=N)NCCC[C@@H]2NC(=O)[C@H](C)NC(=O)[C@@H](COCc3ccccc3)NC(=O)[C@H](CC(=O)OC(C)(C)C)NC(=O)CNC2=O)c(C)c1C` [cyclo-(1,5)-Ala-Arg(Mtr)-Gly-Asp(O-t-Bu)-D-Ser(Bzl)] the ring closure, crude yield ([1]; from H-Asp(OtBu)-dSer(Bzl)-Ala-Arg(Mtr)-Gly-OH, 15-membered ring, PPA/NMM, 0.4 mM) was 67%.
Work on `Cc1ccc(S(=O)(=O)NC(=N)NCCC[C@@H]2NC(=O)[C@@H]3CCCN3C(=O)[C@H]3CCCN3C(=O)CNC(=O)[C@H](CC(=O)OC(C)(C)C)NC(=O)CNC2=O)cc1` [cyclo-(1,6)-Pro-Arg(Tos)-Gly-Asp(O-t-Bu)-Gly-D-Pro] yielded a ring closure, crude yield ([1]; from H-Asp(OtBu)-Gly-dPro-Pro-Arg(Tos)-Gly-OH, 18-membered ring, PPA/NMM, 0.57 mM) of 63%.
“H-Gly-Arg(Tos)-Gly-Asp(Bzl)-Ser(Bzl)-Glu-BHA-resin” showed a ring closure, crude yield [1, 2] of 94%.
For `COc1cc(C)c(S(=O)(=O)NC(=N)NCCC[C@@H]2NC(=O)[C@H](Cc3ccccc3)NC(=O)[C@H](CC(=O)OC(C)(C)C)NC(=O)CNC(=O)[C@H](CCCNC(=N)NS(=O)(=O)c3c(C)cc(OC)c(C)c3C)NC(=O)[C@H](Cc3ccccc3)NC(=O)[C@H](CC(=O)OC(C)(C)C)NC(=O)CNC2=O)c(C)c1C`, the ring closure, crude yield ([1]; from H-Asp(OtBu)-Phe-Arg(Mtr)-Gly-Asp(OtBu)-Phe-Arg(Mtr)-Gly-OH, 24-membered ring, PPA/NMM, 0.4 mM) was 100%.
For `COc1cc(C)c(S(=O)(=O)NC(=N)NCCC[C@@H]2NC(=O)[C@H](Cc3ccccc3)NC(=O)[C@H](CC(=O)OC(C)(C)C)NC(=O)CNC(=O)[C@H](CCCNC(=N)NS(=O)(=O)c3ccc(C)cc3)N(C)C(=O)[C@H](Cc3ccccc3)NC(=O)[C@H](CC(=O)OC(C)(C)C)NC(=O)CNC2=O)c(C)c1C`, the ring closure, crude yield ([1]; from H-Asp(OtBu)-Phe-MeArg(Tos)-Gly-Asp(OtBu)-Phe-Arg(Mtr)-Gly-OH, 24-membered ring, PPA/NMM, 0.4 mM) was 95%.
With “H-Gly-MeArg(Tos)-Gly-Asp(Bzl)-Ser(Bzl)-Glu-BHA-resin” the ring closure, crude yield [1, 2] was 100%.
`COc1cc(C)c(S(=O)(=O)NC(=N)NCCC[C@@H]2NC(=O)CNC(=O)[C@@H]3CCCN3C(=O)[C@H]3CCCN3C(=O)[C@H](CC(=O)OC(C)(C)C)NC(=O)CNC2=O)c(C)c1C` [cyclo-(1,6)-Pro-Gly-Arg(Mtr)-Gly-Asp(O-t-Bu)-D-Pro] gave a ring closure, crude yield ([1]; from H-Asp(OtBu)-dPro-Pro-Gly-Arg(Mtr)-Gly-OH, 18-membered ring, PPA/NMM, 0.37 mM) of 31%.
With `N=C(N)NCCC[C@@H]1NC(=O)CNC(=O)[C@@H]2CCCN2C(=O)[C@H]2CCCN2C(=O)[C@H](CC(=O)O)NC(=O)CNC1=O` [Example 24, cyclo-(1,6)-Pro-Gly-Arg-Gly-Asp-D-Pro] (cyclo(RGD[dP]PG)) the IC50 (dog platelets) was over 200 µM.

Reference: patent US5643872A, “Cyclic anti-aggregatory peptides” (SmithKline Beecham Corporation, priority 1994, dated 1997)
